Data as given in patent publication EP3319638B1, “CINEOL-CONTAINING COMPOSITION FOR THE TREATMENT OF TUMOURS AND/OR CANCERS” (Maria Clementine Martin Klosterfrau Vertriebsgesellschaft …, priority 2015, dated 2017).
“Also recorded” adds a separate entry of the source.

What was measured:
aktivem β-Catenin = assay: Western blot of whole-cell protein: expression level of active β-catenin in HNSCC cell lines; assay type: cell-based, human; conditions: 24 h incubation, 100 µM, versus medium control (Fig. 1A)
Procedure: (§1) Die im Rahmen der vorliegenden Erfindung untersuchten adhärenten humanen Kopf-Hals-Plattenepithel-Karzinom-Zelllinien (UT-SCC16A, UT-SCC-16B, UT-SCC-60A und UT-SCC-60B) werden in "Dulbecco's Modifiziertem Eagle's Medium" (DMEM, 4,5 g/l D-Glucose und L-Glutamin), welches mit 10 % fötalem Rinderserum (FBS) (beide Life Technologies, Carlsbad, CA, USA), 1 % Natriumpyruvat (PAN-Biotech, Aidenbach, Deutschland) und 1 % Antibiotika (10.000 U/ml Penicillin, 10.000 µg/ml Streptomycin) (Biochrom, Berlin, Deutschland) supplementiert ist, bei 37 °C unter 5 % CO2 und 95 % LuftAtmosphäre gelagert.
(§2) Anti-Phospho-GSK-3α/β-Antikörper (Serin-21/-9) (#9331) und Anti-GAPDH-Antikörper (#2118) werden über Cell Signaling Technology (Danvers, MA, USA) bezogen. Beide Antikörper werden in einer […]-Verdünnung in TBS mit 3 % BSA (PAA Laboraties, Pasching, Österreich) verwendet. Anti-Phospho-GSK-3a/β-Antikörper (Y279/Y216) (#ab6847) werden von Abcam (Cambridge, UK) erhalten und in einer 1 : 1.000-Verdünnung in TBS mit 3 % BSA verwendet. Der gegen aktives-β-Catenin gerichtete Antikörper (#05-665) wird über Merck Milipore (Billerica, MA, USA) bezogen und in einer Verdünnung von 1 : 2.000 in TBS und 3 % Milchpulver (Carl Roth, Karlsruhe, Deutschland) verwendet. […]

[1] = tested on: phosphoryliertem GSK-3α/β (Serin-9/-21); assay: Western blot: phosphorylation level of GSK-3α/β at Ser-9/-21 in HNSCC cell lines; assay type: cell-based, human; conditions: 100 µM, HNSCC cell lines (Fig. 1B)
Procedure: as §1, §2

[2] = tested on: GSK-3α/β (Tyrosin-279/-216); assay: Western blot: phospho-GSK-3α/β at Tyr-279/-216 in HNSCC cell lines; assay type: cell-based, human; conditions: 100 µM, HNSCC cell lines (Fig. 1C)
Procedure: as §1, §2

[3] = tested on: Phospho-GSK-3 (Serin-9/-21); assay: Immunohistochemistry: subcellular (endolysosomal) localisation of phospho-GSK-3; assay type: cell-based, human; conditions: 100 µM, versus control medium (Fig. 2)
Procedure: Zur Detektion von […] innerhalb der Tumorzellen wird eine immunohistochemische Methode eingesetzt. Die Zellen werden 24 Stunden vor der Behandlung mit 100 µM Cineol in 4-Well-Kammerobjektträgern (Sarstadt AG, Numbrecht, Deutschland) überführt. Nach der Inkubation wurde das Medium entfernt und die Zellen wurden zweimal in PBS gewaschen. Zur intrazellulären Färbung wurden die Zellen mit 0,1 % Triton-X-100 (Sigma-Aldrich Chemie GmbH, Steinheim) in PBS fixiert. Der spezifische primäre Antikörper Anti-Phospho-GSK-3α/β (Serin-21/-9) (#9331) (Cell Signaling, Danvers, MA, USA) wird mit einem Antikörper-Verdünnungspuffer, welcher Blocking-Puffer (DCS LabLine, DCS, Hamburg, Deutschland) enthält, auf 1 : 50 verdünnt und in einer luftbefeuchteten Kammer für 1 Stunde bei Raumtemperatur (RT) inkubiert. Nach Waschen mit PBS wird der zweite Antikörper Ziege-anti-Maus FITC (Jackson ImmunoResearch Laboratories, West Grove, USA) in einer Verdünnung von 1 : 100 für 45 Minuten inkubiert. Die Zellen werden dreimal mit PBS gespült. Die Zellkerne werden für 1 Minute unter Einsatz von DAPI (1 µg/ml, Roche Diagnostics, Mannheim, Deutschland) gefärbt. Die Proben werden dreimal für 5 Minuten mit PBS gespült und anschließend in Fluoromount G (Southern Biotechnologies Associates, Birmingham, Alabama, USA) eingebettet. […]

Akt = assay: Western blot: Akt expression in HNSCC cell lines; assay type: cell-based, human; conditions: 100 µM, HNSCC cell lines (Fig. 3)
Procedure: as §1
(§3) Die Zellen werden zweimal in eiskaltem PBS gewaschen und anschließend in RIPA-Puffer (Cell Signaling Technology, Danvers, MA, USA) mit Aprotinin, Pepstatin A, Protease Inhibitor Cocktail und Phenylmethansulfonylfluorid (Sigma-Aldrich, St. Louis, MO, USA) für 1,5 Stunden lysiert. Durch Zentrifugation (13.000 rpm, 4 °C, 10 Minuten) werden Zelltrümmer entfernt. Die Proteinkonzentration wird mittels des Bradford-Tests mit einfach konzentriertem Quick StartTM Dye Reagent (Bio-Rad Laboratories, Hercules, CA, USA) bestimmt. Es wird vierfach konzentrierter SDS-Probenpuffer hinzugefügt, und die Proben werden für 5 Minuten bei 95 °C denaturiert. Äquivalente Proteinmengen (30 µg) werden mittels SDS-PAGE in einem 10 % Polyacrylamidgel aufgetrennt und mittels Immunoblot auf Nitrocellulosemembranen übertragen. […]

P-Akt (Threonin-308) = assay: Western blot: Akt phosphorylation at Thr-308 in HNSCC cell lines; assay type: cell-based, human; conditions: 100 µM, HNSCC cell lines (Fig. 3)
Procedure: as §1, §3

Wnt11 [4] = assay: RT2 EMT Profiler PCR array: Wnt11 mRNA level in HNSCC cell lines; assay type: cell-based, human; conditions: 100 µM, HNSCC cell lines (Fig. 4A)
Source text: PCR-Test zur humanen epithelial-mesenchymalen Transition (EMT) Mit dem "Human Epithelial to Mesenchymal Transition (EMT) RT^2 Profiler™ PCR Array" wird die Expression von 84 Schlüsselgenen, welche ihre Expression während dieses Prozesses verändern oder die Expression von sich verändernden Genen regulieren, festgestellt. Der Test umfasst für Zelloberflächenrezeptoren, extrazelluläre Matrix und das Zytoskelett kodierende Gene, Gene, welche Zelladhäsion, Migration, Motilität und Morphogenese steuern; sowie Gene für Signaltransduktion und Transkriptionsfaktoren, welche die EMT sowie die damit assoziierten Prozesse bedingen.
Weiterhin werden im Hinblick auf die Wnt/β-Catenin-Signalgebung aufgrund ihrer Involvierung in die Regulation der epithelial-mesenchymalen Transition (EMT) die transkriptionellen Profile verschiedener Gene, welche in Zusammenhang mit EMT stehen, in Reaktion auf 1,8-Cineol untersucht. Dafür wird der PCR-basierte "RT^2 EMT Profiler" eingesetzt, welcher die umfassende Analyse von 84 verschiedenen, in Zusammenhang mit EMT stehenden Genen erlaubt.

Wnt11 [5] = assay: Western blot: Wnt11 protein expression in HNSCC cell lines; assay type: cell-based, human
Procedure: Die Zellen werden zweimal in eiskaltem PBS gewaschen und anschließend in RIPA-Puffer (Cell Signaling Technology, Danvers, MA, USA) mit Aprotinin, Pepstatin A, Protease Inhibitor Cocktail und Phenylmethansulfonylfluorid (Sigma-Aldrich, St. Louis, MO, USA) für 1,5 Stunden lysiert. Durch Zentrifugation (13.000 rpm, 4 °C, 10 Minuten) werden Zelltrümmer entfernt. Die Proteinkonzentration wird mittels des Bradford-Tests mit einfach konzentriertem Quick StartTM Dye Reagent (Bio-Rad Laboratories, Hercules, CA, USA) bestimmt. Es wird vierfach konzentrierter SDS-Probenpuffer hinzugefügt, und die Proben werden für 5 Minuten bei 95 °C denaturiert. Äquivalente Proteinmengen (30 µg) werden mittels SDS-PAGE in einem 10 % Polyacrylamidgel aufgetrennt und mittels Immunoblot auf Nitrocellulosemembranen übertragen. Für die Proteinextraktion aus Geweben werden die Gewebe zunächst in 500 µl RIPA-Puffer mit Protease-Inhibitoren unter Einsatz des TissueLyser LT (Qiagen, Hilden, Deutschland) homogenisiert, anschließend inkubiert und wie zuvor beschrieben zentrifugiert.
Die Membranen werden mit TBS, enthaltend 3 % BSA oder 3 % Milchpulver, für 1 Stunde bei Raumtemperatur geblockt und anschließend mit dem primären Antikörper über Nacht bei 4 °C inkubiert. Nach einem Waschschritt mit TBS werden die Membranen mit dem speziesspezifischen sekundären Antikörper für 1 Stunde bei Raumtemperatur inkubiert. Die Proteinbanden werden unter Einsatz von Amersham™ ECL™ Primer Western Blotting Detection Reagent (GE Healthcare, Chalfont St Giles, Buckinghamshire, UK) und Fusion-FX7 sowie der korrespondierenden Software Fusion Bio-1D V12.14 (Vilber-Lourmat, Eberhardzell, Deutschland) nach ausgiebigem Waschen visualisiert. Die Nitrozellulosemembranen werden über Nacht bei 4 °C mit einem GAPDH-Antikörper inkubiert, um die Beladung jeder Spur zu bestimmen. Die Membranen werden nochmals gewaschen und mit dem sekundären Antikörper und ECL Detektionsreagenz inkubiert. […]

HNSCC-Zellen = assay: MTT test: proliferation and viability of HNSCC cells, 288 h incubation; assay type: cell-based, human; conditions: 700 µM, MTT (Fig. 5)
Source text: (§4) Die Zellproliferation wird mittels eines quantitativen kolorimetrischen 3-(4,5-Dimethylthiazol-2-yl)-2,5-diphenyltetrazoliumbromid-basierten (MTT) Zelltests bestimmt. Dieser Test bestimmt die Anzahl der lebensfähigen Zellen auf Basis der mitochondrialen Konversion von MTT.
(§5) Dazu werden 5.000 Zellen in jedes Well einer 96-Well-Platte verteilt. Nach 24 Stunden Kultivierung werden vier verschiedene Konzentrationen von 5-Fluoruracil oder Cisplatin zu den Kulturen hinzugefügt oder die Zellen werden mit drei Dosen bestrahlt. Nach 48 Stunden werden in jedes Well 10 µl MTT-Farbstoff (5 mg/ml) zugefügt. Nach zwei Stunden Inkubation mit MTT wurden die Kristalle gelöst und vorsichtig für 24 Stunden bei Raumtemperatur geschüttelt. Mithilfe eines Multi-Well-ELISA-Lesegeräts wird die Absorption der reduzierten Formazan-Produkte in Kontrolle und Proben-Wells bei einer Welle von 570 nm und 690 nm bestimmt. Alle Wachstumsproben des MTT-Tests werden in dreifacher Ausführung ausgeführt.
Dosisabhängige Inhibition der Proliferation von HNSCC durch 1,8-Cineol Um zu bestimmen, ob die Behandlung mit 1,8-Cineol zu einer Inhibition der zellulären Lebensfähigkeit von HNSCC führt, werden MTT-Tests durchgeführt. Zu diesem Zweck werden die Zellen für 288 Stunden in 300 µM bzw. 700 µM Cineol inkubiert.

HNSCC-Zelllinien = assay: MTT assay: vitality and proliferation of HNSCC cell lines, 250 h culture; assay type: cell-based, human
Source text: as §4, §5
(§6) Es werden weiterführende Untersuchungen durchgeführt zur Analyse des Einflusses von Cineol auf die Vitalität und Proliferation verschiedener permanenter Zelllinien. Hierzu werden einerseits die zwei HNSCC-Zelllinien und des Weiteren eine Fibroblastenzelllinie verwendet. Diese werden über einen Zeitraum von 250 Stunden mit verschiedenen Cineol-Konzentrationen kultiviert (1 mM bis 10 mM) und die Vitalität der Zellen wird jeweils mittels eines MTT-Assays untersucht.

Fibroblastenzelllinie = assay: MTT assay: vitality and proliferation of a fibroblast cell line, 250 h culture; assay type: cell-based
Source text: as §4, §5, §6

[6] = from a concentration of 1mM to 2mM

Compound: CC12CCC(CC1)C(C)(C)O2 [1,8-Cineol, 1,3,3-Trimethyl-2-oxabicyclo[2.2.2]octan]
- Expressionslevel von aktivem β-Catenin (aktivem β-Catenin): starke Abnahme von aktivem β-Catenin
- Level von bzw. Gehalt an phosphoryliertem GSK-3α/β (Serin-9/-21) [1]: verringerten Level von bzw. Gehalt an phosphoryliertem GSK-3α/β (Serin-9/-21)
- Expressionslevel von GSK-3α/β (Tyrosin-279/-216) [2]: nicht nennenswert beeinflusst
- endolysosomale Lokalisation von GSK-3 [3]: Rückgang der endolysosomalen Lokalisation von Phospho-GSK-3 (Serin-9/-21); also recorded: verringerte endolysosomale Lokalisation von GSK-3
- Expression von Akt (Akt): Weder die Expression noch die Phosphorylierung von Threonin-308 von Akt wird in den analysierten Zelllinien nennenswert beeinflusst
- Phosphorylierung von Threonin-308 von Akt (P-Akt (Threonin-308)): Weder die Expression noch die Phosphorylierung von Threonin-308 von Akt wird in den analysierten Zelllinien nennenswert beeinflusst
- mRNA-Level von Wnt11 (Wnt11 [4]): starken Rückgang der mRNA-Level von Wnt11
- Proteinexpression von Wnt11 (Wnt11 [5]; cell lines 16A, SCC154, 60B and Carey24, 24 h, 1mM): starke Herunterregulation von Wnt11
- Wnt11 Proteinexpression (Wnt11 [5]; cell lines 16B and 60A, 24 h, 1mM): Rückgang der Wnt11 Proteinexpression, auch wenn dieser geringer ist
- Proteinexpression von Wnt11 (Wnt11 [5]; dose dependence, six HNSCC cell lines (Fig. 4B)): dosisabhängig in Reaktion auf 1,8-Cineol abnimmt
- Proliferation und zelluläre Lebensfähigkeit von HNSCC-Zellen (HNSCC-Zellen): stark verringerte zelluläre Lebensfähigkeit
- Proliferation und zelluläre Lebensfähigkeit von HNSCC-Zellen (HNSCC-Zellen; listed as Cineol): starker Rückgang der Proliferation und zellulären Lebensfähigkeit
- Einfluss auf die Progression und Vitalität von HNSCC (HNSCC-Zelllinien; 1 mM to 10 mM): inhibierender Einfluss
- zytotoxische Wirkung (HNSCC-Zelllinien; 10mM): deutlich zytotoxische Wirkung
- proliferationshemmende Wirkung (HNSCC-Zelllinien; [6]): starke proliferationshemmende Wirkung
- Einfluss auf die Progression und Vitalität von Fibroblasten (Fibroblastenzelllinie; 1 mM to 10 mM): inhibierender Einfluss
- zytotoxische Wirkung (Fibroblastenzelllinie; 10mM): deutlich zytotoxische Wirkung
- proliferationshemmende Wirkung (Fibroblastenzelllinie; [6]): starke proliferationshemmende Wirkung
